This note sets out measurements from patent US8039512B2, “Biologically active oils” (priority 2003, dated 2011).

Assay [1] deals with Secreted PGE2 from 3T3 cells. Kind of assay: In-vitro prostaglandin PGE2 (COX pathways) EIA assay. In kind it is cell-based, mouse. The settings on record: 50 µM. On the procedure: This assay was performed using Cayman chemicals Prostaglandin E2 EIA Kit-Monoclonal, according to kit protocol. Each sample was assayed at three dilutions in duplicate. […] In particular the two samples produced dose dependent inhibition of secreted PGE2 from the mouse fibroblast cell line equivalent to or better than aspirin under the test conditions.

Assay [2] deals with 5-lipoxygenase pathway of human neutrophils (PMN). Kind of assay: Lipoxygenase pathways (leukotrienes and HETE) HPLC assay in isolated PMN. The note with it: for 5-HETE synthesis / Isomer 1 (all trans isomer of LTB4) synthesis / Isomer 2 (all trans isomer of LTB4) synthesis / LTB4 synthesis: human PMN, arachidonic acid + A23187. The assay is classed as cell-based. From the text: The HPLC assay readily quantifies 5-HETE, 12-HETE, LTB4, and the two all trans-isomers of LTB-4, and thus gives quantitative data on the relative activities of the enzymes in the 5-lipoxygenase of neutrophils, as well as data on the 12-lipoxygenase pathway of platelets. Thus it is an ideal system to test potential inhibitors of these pathways.
The effects of inhibitory compounds may be tested on isolated human PMN and platelets, in which the pathways are activated by treating the PMN or platelets with arachidonic acid and the calcium ionophore A23187. The addition of arachidonic acid eliminates the PLA-2 step, and provides high levels of substrate for the pathway. Furthermore, such activation is known to maximally drive the pathway to produce the greatest synthesis of all the metabolites, and thus is also the least sensitive to inhibition.
All samples were dissolved in ethanol to give stock solutions of 10 mg/mL. Two further dilutions of each stock solution were made in ethanol at 5 and 1 mg/mL, making 10 test samples in all. […]
1. Up to 100 mL of blood was taken from a normal volunteer and anticoagulated with EDTA. Two mL of 4.5% EDTA in water was mixed with each 10 mL of blood.
2. A further 2 mL of 6.0% Dextran T500 was added to each of the 12 mL mixtures in 1, and placed in a water bath at 37° C., to sediment the red blood cells.
3. Following sedimentation in 2, the supernatant was carefully laid over 5 mL of Percoll, density 1.070. This was then spun at 500 g for 35 mins.
4. All the cells (PMN and remaining RBC) below the Percoll interface were removed with a plastic pipette and diluted at least 3-fold with Ca^2+/Mg^2+-free Dulbecco's phosphate buffer, and centrifuged at 600 g for 10 mins.
5. Following 4, the supernatant was carefully aspirated, and the pellet gently mixed with 1 mL of Ca^2+/Mg^2+-free Dulbecco's phosphate buffer by aspiration/deaspiration into a 1 ml plastic disposable pipette. A further 40 mL of Ca^2+/Mg^2+-free Dulbecco's phosphate buffer was then added and mixed by inversion. The cell suspension was then centrifuged at 600 g for 10 mins. 6. Following centrifugation, the supernatant was removed and the PMN pellet lysed with 10 mL of a 0.2% cold sodium chloride solution for 20 secs, followed by the addition of 10 mL of a 1.6% cold sodium chloride solution, and centrifuged at 600 g for 10 mins. 7. Following 6, the PMN pellet was vigorously mixed with 1 mL of Hank's buffer by rapid aspiration/deaspiration into a 1 mL plastic disposable pipette, and then finally suspended in Hank's buffer at 2.4×10^6 PMN/ml (as measured using a Coulter counter), in preparation for the leukotriene assay. Activation of Leukotriene Pathway 1. 1 mL of PMN suspension (2.4×10^6 PMN/ml) was transferred to a 13 mL glass tube (chromic acid washed) and placed in a water bath at 37° C. for 5 min prewarming. 2. Following prewarming, at time zero, 10 μL of each test compound in methanol (or equivalent volumes of methanol as control) was added to quadruplicate tubes over a 20 sec period. 3. At 5 min, 5 µL of 2 mM arachidonic acid (10 μM final) was added (4 tubes/20 secs). 4. At 10 min, 5 µL of 1 mM calcium ionophore (A23187) (5 μM final) was added (4 tubes/20 secs). 5. At 15 min the reaction was terminated by the addition of 100 μL 100 mM citric acid. This lowers the pH of the aqueous phase to less than 3, which is necessary for the extraction of the leukotrienes into the organic phase. 6. The pH of several samples was checked to ensure pH<3.0. (This is important). 7. 40 ng Prostaglandin B2 and 166 ng 15-HETE were added to each tube as the internal standard for LTB4 and 5-HETE respectively, and samples were mixed. 8. For Standard Curves LTB4 [1 ng/μl] (for a standard curve in the range 0-50 ng) and 5-HETE [5 ng/μL] (standard curve range 0-250 ng) were added to tubes containing 1 mL PMN, 100 μL of 100 mM citric acid and 40 ng PGB2 and 166 ng 15-HETE. 9. All tubes were vortexed. 10. […]

Regarding `CC(=O)Oc1ccccc1C(=O)O` [Aspirin], the “% Control (secreted PGE2)” value in assay [1] (A23187) was 72.6 % Control; in assay [1] (A23187, listed as aspirin), “around 72.6 % Control”.
On to `CCC(C)CCCCCCCCCCC(=O)O` (centres unmarked) [Sample 12-MTA, 12-methyl tetradecanoic acid], for which the 5-HETE synthesis in assay [2] (2 μg/mL) was 55 ± 9 percentage of the methanol control; in assay [2] (5 μg/mL) it was 65 ± 3 percentage of the methanol control; in assay [2] (10 μg/mL), 46 ± 11 percentage of the methanol control; in assay [2] (20 μg/mL) it was 2 ± 4 percentage of the methanol control; in assay [2] (50 μg/mL) it was 0 percentage of the methanol control. Besides, the “Isomer 1 (all trans isomer of LTB4) synthesis” value is recorded as 73 ± 13 percentage of the methanol control in assay [2] (2 μg/mL); 101 ± 12 percentage of the methanol control in assay [2] (5 μg/mL); 59 ± 14 percentage of the methanol control in assay [2] (10 μg/mL); 0 percentage of the methanol control in assay [2] (20 μg/mL); 0 percentage of the methanol control in assay [2] (50 μg/mL). In addition, the “Isomer 2 (all trans isomer of LTB4) synthesis” value in assay [2] (2 μg/mL) was 60 ± 17 percentage of the methanol control; in assay [2] (5 μg/mL), 97 ± 9 percentage of the methanol control; in assay [2] (10 μg/mL) it was 68 ± 14 percentage of the methanol control; in assay [2] (20 μg/mL), 0 percentage of the methanol control; in assay [2] (50 μg/mL), 0 percentage of the methanol control. Besides, the LTB4 synthesis in assay [2] (2 μg/mL) is 84 ± 5 percentage of the methanol control; in assay [2] (5 μg/mL), 101 ± 12 percentage of the methanol control; in assay [2] (10 μg/mL), 70 ± 17 percentage of the methanol control; in assay [2] (20 μg/mL), 0 percentage of the methanol control; in assay [2] (50 μg/mL), 0 percentage of the methanol control. Further, the “Inhibition of the 5-LOX pathway” value in assay [2] (as low as 20 μg/mL) came to 100%.
